Source: patent publication US20140335077A1, “Compositions and Methods for the Treatment of Cancer Using IGF-IR Antagonists and MAPK/ERK Inhibitors” (priority 2013, published 2014)

Assays:
[1] = test system: IGF-1R, AKT and ERK phosphorylation; assay: IGF-1R signaling activation in ES cell lines (WB for P-IGF-1R, P-AKT, P-ERK); type: cell-based; details: serum starved ES cells
IGF-1R [2] = molecular target: T1, IGF-1R (Mus musculus, UniProt Q60751); assay: IGF-1R degradation in MEF cells (β-arrestin knockouts, Δ1245 IGF-1R), WB; type: cell-based; details: 24 h
T1 construct: MEF cells expressing full length, wild type IGF-1R; endogenous in cells; host or cells: MEF, and MEF knockout for β-arrestin1, β-arrestin2 or both
Protocol: (§1) Protein lysates were analyzed by WB for IGF-1R and GAPDH as a loading control. […] Data correspond to the mean±SEM from three independent experiments. (B,D) Cell viability of the CP-treated cells for 48 h, in the absence (SFM) or presence of serum, was evaluated by PrestoBlue reagent. […] Data correspond to the mean±SEM from three independent experiments.
(§2) Appropriate primary antibody was incubated overnight at 4° C.

IGF-1R [3] = assay: as above; type: cell-based, mouse; details: R− MEF expressing Δ1245 IGF-1R; over 48 h
Protocol: as §1, §2

T1 sequence (Q60751 31-737 limits assumed): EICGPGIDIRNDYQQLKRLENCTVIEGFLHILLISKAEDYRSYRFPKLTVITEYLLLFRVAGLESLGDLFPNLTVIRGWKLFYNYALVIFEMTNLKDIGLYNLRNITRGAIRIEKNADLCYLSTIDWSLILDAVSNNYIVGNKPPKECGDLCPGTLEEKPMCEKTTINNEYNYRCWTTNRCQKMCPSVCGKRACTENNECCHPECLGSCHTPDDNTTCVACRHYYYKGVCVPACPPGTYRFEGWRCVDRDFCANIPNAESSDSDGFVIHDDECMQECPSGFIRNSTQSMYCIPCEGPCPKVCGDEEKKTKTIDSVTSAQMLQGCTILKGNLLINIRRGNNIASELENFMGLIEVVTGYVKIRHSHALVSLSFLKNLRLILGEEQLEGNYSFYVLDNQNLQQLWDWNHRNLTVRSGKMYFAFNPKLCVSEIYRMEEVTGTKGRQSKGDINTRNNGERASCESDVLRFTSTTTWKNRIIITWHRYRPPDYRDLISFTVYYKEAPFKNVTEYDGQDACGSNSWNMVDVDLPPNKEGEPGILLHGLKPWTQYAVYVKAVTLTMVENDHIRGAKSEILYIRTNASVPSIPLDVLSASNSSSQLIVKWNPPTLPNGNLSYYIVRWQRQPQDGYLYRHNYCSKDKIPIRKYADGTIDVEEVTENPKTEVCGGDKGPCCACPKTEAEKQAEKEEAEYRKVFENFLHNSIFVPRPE
T1 sequence (Q60751 742-1373 limits assumed): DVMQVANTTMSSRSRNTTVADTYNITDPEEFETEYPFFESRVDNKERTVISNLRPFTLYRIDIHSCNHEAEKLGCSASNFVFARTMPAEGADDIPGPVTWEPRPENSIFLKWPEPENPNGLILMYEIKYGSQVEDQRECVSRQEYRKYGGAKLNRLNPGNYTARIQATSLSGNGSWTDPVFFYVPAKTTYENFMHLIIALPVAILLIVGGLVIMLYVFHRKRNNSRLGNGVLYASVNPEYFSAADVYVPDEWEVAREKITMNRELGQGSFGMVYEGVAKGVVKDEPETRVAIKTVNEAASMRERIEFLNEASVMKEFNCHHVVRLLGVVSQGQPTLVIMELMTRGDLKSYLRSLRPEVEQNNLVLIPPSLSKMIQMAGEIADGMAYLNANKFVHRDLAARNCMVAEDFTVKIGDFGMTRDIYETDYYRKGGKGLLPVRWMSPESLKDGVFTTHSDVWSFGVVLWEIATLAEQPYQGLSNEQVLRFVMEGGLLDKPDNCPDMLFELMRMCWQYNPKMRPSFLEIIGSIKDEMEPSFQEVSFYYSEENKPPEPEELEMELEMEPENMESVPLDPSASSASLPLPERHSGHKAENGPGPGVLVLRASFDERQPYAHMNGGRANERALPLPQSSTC

IGF-1R degradation (IGF-1R [2]; MEF without β-arr1 (β1KO or β1/2 KO)): almost completely abolished
IGF-1R degradation (IGF-1R [2]; control MEF and β2KO cells (expressing β-arr1)): drastically downregulated the receptor
Substance: IGF-1: classical ligand of IGF-1R, used at 50 ng/ml for stimulation
Time to phosphorylation of the IGF-1R activation loop [1]: ≤ 2 min
Degradation of truncated IGF-1R (Δ1245) (IGF-1R [3]): resistant
